# Measured values taken from ChEMBL document CHEMBL1126365, “Mechanism-based inactivation of mandelate racemase by propargylglycolate” (Bioorg Med Chem Lett, 1992).
# Experiments:
# Pseudomonas putida [1] = experiment: Kinetic inactivation against mandelate racemase from Pseudomonas putida ATCC 12633 in a solution of D2O
# Pseudomonas putida [2] = experiment: Kinetic inactivation against mandelate racemase from Pseudomonas putida ATCC 12633
compound,measurement,setting,value
O=C(O)[C@@H](O)c1ccccc1,K inact,Pseudomonas putida [1],0.2 min⁻¹
same,K inact,Pseudomonas putida [2],0.28 min⁻¹
